Assay results published in patent US6939550B2, “Stabilized antihistamine syrup” (Schering Corporation, priority 1998, dated 2005).
Read-outs that look alike come from different tables or passages of the source.

Assays:
[1] = Accelerated storage stability of syrups in sealed vials at 55° C., analysis by HPLC; assay type: physicochemical; details: severe storage conditions of the test (55° C.)
Procedure: This level can be readily determined by means of an accelerated storage stability test, in which packages of the final product are stored at elevated temperatures above the usual storage temperatures to which the product is expected to be exposed; the present inventors have used temperatures up to 55° C. for this purpose, although such temperatures tend to cause a minor discoloration (darkening) of the syrups, probably due to some carmelization of the contained sucrose. It is expected that most drug degradation reactions will be accelerated by the elevated temperature. At predetermined intervals, some of the packages are opened and analyzed to determine the amount of active ingredients and impurities present in the formulation.
Twenty five mL portions of the two syrups are placed into 50 mL flint glass vials, then sealed with rubber stoppers and aluminum caps. The sealed vials are stored at 55° C. until their removal and analysis by high performance liquid chromatography.
Sample A from the preceding example and similarly prepared syrups which also contain 0.1, 0.25, 0.5 or 0.75 mg/mL of disodium EDTA are packaged as in the prior example, and stored and tested similarly.

[2] = Test of common antioxidant additives incorporated into the syrup
Procedure: Another test was conducted, wherein common antioxidant additives were incorporated into the syrup. Ideally, the antioxidant will be soluble in the syrup and is safe for use in foods and pharmaceutical preparations.

O=C(O)CN(CCN(CC(=O)O)CC(=O)O)CC(=O)O [EDTA, ethylenediaminetetraacetic acid]
inhibition of the degradation of loratadine [1]: significant inhibition

O=C1O[C@H]([C@@H](O)CO)C(O)=C1O [ascorbic acid]
color change in the product ([2]; additive at 0.1 and 1 mg/mL in the syrup): unacceptable strong color change

Cc1cc(C(C)(C)C)c(O)c(C(C)(C)C)c1 [butylated hydroxytoluene]
solubility in the syrup [2]: not soluble

O=S([O-])O.[Na+] [sodium bisulfite]
odor imparted to the syrup ([2]; additive in the syrup): pungent, disagreeable odor

tocopherol
solubility in the syrup ([2]; oil-soluble antioxidants): not soluble
